Experimental data reported in patent US11713338B2, “Cyclic peptides multimers targeting α-4-β-7 integrin” (priority 2016, dated 2023).

Columns and labels:
[1] = molecular target: T1, recombinant integrin α4β1 (Homo sapiens, UniProt P05556+P13612); assay: Integrin α4β1—VCAM-1 competition ELISA; assay type: binding; conditions: for IC50: read-out: ELISA a4b1 Assay IC50
T1 construct: purchased R&D Systems 5397-A3-050
Method: Integrin α4β1—VCAM-1 Competition ELISA
The plate was incubated at 4° C. overnight. […] The plate was then incubated for 1 hour at room temperature. The plate was washed three times with wash buffer (50 mM Tris, 100 mM NaCl, 1 mM MnCl2, 0.05% Tween). To each well, 50 μl of compound diluted in assay buffer was added by transfer from a compound serial dilution plate. […] The plate was incubated at room temperature with shaking (300 rpm) for 2 hours to reach binding equilibrium. Then the plate was washed three times in wash buffer and 100 μl anti-human IgG Fc specific-HRP (Abcam, Ab97225) diluted at 1:2000 in assay buffer was added to each well. The plate was incubated at room temperature for 1 hour under agitation.

[2] = molecular target: T2, recombinant integrin α4β7 (Homo sapiens, UniProt P13612+P26010, DEL724-798); assay: Integrin α4β7—MAdCAM-1 ELISA competition assay; assay type: binding; conditions: for ELISA Assay Ratio b1/b7: ratio of a4b1 to a4b7 ELISA IC50; for IC50: read-out: ELISA a4b7 Assay IC50
T2 construct: purchased R&D Systems 5397-A3-050
T2 sequence (P13612 34-970 limits assumed): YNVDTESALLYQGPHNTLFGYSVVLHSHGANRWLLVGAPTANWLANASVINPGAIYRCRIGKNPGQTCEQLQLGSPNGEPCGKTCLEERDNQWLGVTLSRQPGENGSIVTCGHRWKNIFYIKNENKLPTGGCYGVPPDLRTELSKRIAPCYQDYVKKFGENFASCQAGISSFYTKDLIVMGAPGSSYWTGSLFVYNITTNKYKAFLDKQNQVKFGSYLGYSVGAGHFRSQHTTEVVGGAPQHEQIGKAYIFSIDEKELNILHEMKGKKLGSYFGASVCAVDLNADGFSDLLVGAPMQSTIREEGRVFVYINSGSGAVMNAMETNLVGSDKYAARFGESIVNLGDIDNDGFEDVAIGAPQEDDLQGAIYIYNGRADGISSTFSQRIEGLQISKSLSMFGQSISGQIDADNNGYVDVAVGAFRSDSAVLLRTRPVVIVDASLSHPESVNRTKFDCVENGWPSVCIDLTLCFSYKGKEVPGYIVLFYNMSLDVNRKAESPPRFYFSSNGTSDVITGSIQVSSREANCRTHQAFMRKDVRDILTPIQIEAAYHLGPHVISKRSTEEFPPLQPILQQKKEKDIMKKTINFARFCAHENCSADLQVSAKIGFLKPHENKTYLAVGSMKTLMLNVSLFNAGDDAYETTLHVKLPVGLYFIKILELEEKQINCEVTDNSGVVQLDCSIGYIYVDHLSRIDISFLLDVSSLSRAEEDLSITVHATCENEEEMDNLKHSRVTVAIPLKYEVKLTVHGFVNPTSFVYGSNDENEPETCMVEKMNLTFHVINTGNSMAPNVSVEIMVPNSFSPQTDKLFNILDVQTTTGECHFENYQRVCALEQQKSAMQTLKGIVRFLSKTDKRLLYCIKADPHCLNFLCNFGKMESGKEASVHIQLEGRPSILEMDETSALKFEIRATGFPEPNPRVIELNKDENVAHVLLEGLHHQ
T2 sequence (P26010 20-723 limits assumed): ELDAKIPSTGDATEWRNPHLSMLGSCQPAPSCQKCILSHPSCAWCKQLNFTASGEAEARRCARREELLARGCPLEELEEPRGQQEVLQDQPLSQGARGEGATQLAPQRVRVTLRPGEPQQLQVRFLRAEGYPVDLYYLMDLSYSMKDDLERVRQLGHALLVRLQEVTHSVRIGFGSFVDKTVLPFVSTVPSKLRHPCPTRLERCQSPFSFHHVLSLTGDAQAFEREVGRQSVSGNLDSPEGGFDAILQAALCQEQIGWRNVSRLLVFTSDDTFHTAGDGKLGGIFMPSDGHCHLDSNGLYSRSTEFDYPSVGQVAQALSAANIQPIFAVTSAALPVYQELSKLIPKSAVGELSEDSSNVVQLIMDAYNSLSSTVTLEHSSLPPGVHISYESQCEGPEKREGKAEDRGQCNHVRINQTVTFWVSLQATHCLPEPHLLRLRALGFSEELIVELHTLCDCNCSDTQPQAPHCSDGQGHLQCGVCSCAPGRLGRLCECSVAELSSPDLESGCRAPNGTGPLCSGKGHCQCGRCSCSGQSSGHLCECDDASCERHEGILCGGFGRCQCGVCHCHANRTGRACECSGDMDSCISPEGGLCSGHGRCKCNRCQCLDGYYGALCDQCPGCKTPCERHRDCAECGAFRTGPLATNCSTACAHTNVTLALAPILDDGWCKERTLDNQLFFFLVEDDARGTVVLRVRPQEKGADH
Method: Integrin α4β7—MAdCAM-1 ELISA Competition Assay
The plate was incubated at 40C overnight. […] The plate was then incubated for 1 hour at room temperature. The plate was washed three times with wash buffer (50 mM Tris, 100 mM NaCl, 1 mM MnCl2, 0.05% Tween). To each well, 50 μl of compound diluted in assay buffer was added by transfer from a compound serial dilution plate. […] The plate was incubated at room temperature with shaking (300 rpm) for 2 hours to reach binding equilibrium. […] The plate was incubated at room temperature for 1 hour under agitation.

T1 sequence (P05556 21-728 limits assumed, one chain of several): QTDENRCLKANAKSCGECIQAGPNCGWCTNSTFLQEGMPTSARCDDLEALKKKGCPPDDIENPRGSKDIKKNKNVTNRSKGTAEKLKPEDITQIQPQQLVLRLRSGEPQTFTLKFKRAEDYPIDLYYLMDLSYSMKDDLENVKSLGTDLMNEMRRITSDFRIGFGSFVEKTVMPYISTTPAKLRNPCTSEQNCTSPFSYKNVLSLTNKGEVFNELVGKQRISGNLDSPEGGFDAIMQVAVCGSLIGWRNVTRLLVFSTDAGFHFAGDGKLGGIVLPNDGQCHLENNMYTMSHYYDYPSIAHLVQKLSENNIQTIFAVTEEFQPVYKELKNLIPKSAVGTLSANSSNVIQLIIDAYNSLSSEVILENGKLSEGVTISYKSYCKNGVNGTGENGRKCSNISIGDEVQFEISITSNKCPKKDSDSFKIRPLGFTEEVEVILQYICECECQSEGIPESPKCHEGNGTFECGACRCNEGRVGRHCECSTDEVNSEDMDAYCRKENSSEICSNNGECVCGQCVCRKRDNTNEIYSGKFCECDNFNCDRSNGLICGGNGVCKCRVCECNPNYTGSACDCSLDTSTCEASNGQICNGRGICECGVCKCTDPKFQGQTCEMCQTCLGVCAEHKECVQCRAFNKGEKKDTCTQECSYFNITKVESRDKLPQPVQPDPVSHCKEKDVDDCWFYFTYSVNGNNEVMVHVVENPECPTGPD

CC(C)C[C@@H]1NC(=O)[C@H](Cc2cccnc2)NC(=O)[C@@H]2C[C@@H](O)CN2[C@H](C(=O)NC(C)(C)C)[C@H](C)NC(=O)[C@H]([C@@H](C)O)NC(=O)[C@H](CC(=O)O)NC1=O [Compound 44]
IC50 [1]: 188 nM

CC(C)C[C@@H]1NC(=O)[C@@H]2C[C@@H](OCc3ccccc3)CN2C(=O)[C@@H]2CCCN2[C@H](C(=O)NC(C)(C)C)[C@H](C)NC(=O)[C@H]([C@@H](C)O)NC(=O)[C@H](CC(=O)O)NC1=O [Compound 57]
ELISA Assay Ratio b1/b7 [2]: 2.5
IC50 [2]: 59 nM
IC50 [1]: 148 nM

CC(C)C[C@@H]1NC(=O)[C@H]2C[C@H](O)CN2C(=O)[C@H](Cc2ccc(CN)cc2)NC(=O)[C@@H]2CCCN2[C@H](C(=O)NC(C)(C)C)[C@H](C)NC(=O)[C@H]([C@@H](C)O)NC(=O)[C@H](CC(=O)O)NC1=O [Compound 152]
ELISA Assay Ratio b1/b7 [2]: 13.2
IC50 [2]: 102 nM
IC50 [1]: 1350 nM

CC(C)C[C@@H]1NC(=O)C[C@H](CCCCN)NC(=O)[C@H](Cc2ccccc2-c2ccc(N3CCNCC3)cc2)NC(=O)[C@@H]2CCCN2[C@H](C(=O)NC(C)(C)C)[C@H](C)NC(=O)[C@H]([C@@H](C)O)NC(=O)[C@H](CC(=O)O)NC1=O [Compound 271]
ELISA Assay Ratio b1/b7 [2]: 34.6
IC50 [1]: 1150 nM

C=CCOc1ccc(C[C@@H]2NC(=O)[C@@H]3CCCN3[C@H](C(=O)NC(C)(C)C)[C@H](C)NC(=O)[C@H]([C@@H](C)O)NC(=O)[C@H](CC(=O)O)NC(=O)[C@H](CC(C)C)NC(=O)CNC2=O)cc1 [Compound 163]
ELISA Assay Ratio b1/b7 [2]: 11.0
IC50 [2]: 126 nM
IC50 [1]: 1390 nM

CC(C)C[C@@H]1NC(=O)C[C@H](CCCCN)NC(=O)[C@](C)(Cc2ccccc2)NC(=O)[C@@H]2CCCN2[C@H](C(=O)NC(C)(C)C)[C@H](C)NC(=O)[C@H]([C@@H](C)O)NC(=O)[C@H](CC(=O)O)NC1=O [Compound 263]
ELISA Assay Ratio b1/b7 [2]: 23.1
IC50 [2]: 102 nM
IC50 [1]: 2350 nM

CC(C)C[C@@H]1NC(=O)[C@H](C2CCCCC2)NC(=O)[C@@H]2CCCN2[C@H](C(=O)NC(C)(C)C)[C@H](C)NC(=O)[C@H]([C@@H](C)O)NC(=O)[C@H](CC(=O)O)NC1=O [Compound 91]
ELISA Assay Ratio b1/b7 [2]: 14.5
IC50 [2]: 126 nM
IC50 [1]: 1820 nM

CC(C)C[C@@H]1NC(=O)C[C@H](CCCCN)N(C)C(=O)[C@H](CCCCNC(=O)c2cc(C(=O)O)cc(C(=O)NCCCC[C@@H]3NC(=O)[C@@H]4CCCN4[C@H](C(=O)NC(C)(C)C)[C@H](C)NC(=O)[C@H]([C@@H](C)O)NC(=O)[C@H](CC(=O)O)NC(=O)[C@H](CC(C)C)NC(=O)C[C@H](CCCCN)N(C)C3=O)c2)NC(=O)[C@@H]2CCCN2[C@H](C(=O)NC(C)(C)C)[C@H](C)NC(=O)[C@H]([C@@H](C)O)NC(=O)[C@H](CC(=O)O)NC1=O [Compound 537]
ELISA Assay Ratio β1/β7 ([1]; ratio of ELISA IC50s, α4β1 over α4β7): 0.4

CC(C)C[C@@H]1NC(=O)[C@H](CC2CCCCC2)NC(=O)[C@@H]2CCCN2[C@H](C(=O)NC(C)(C)C)[C@H](C)NC(=O)[C@H]([C@@H](C)O)NC(=O)[C@H](CC(=O)O)NC1=O [Compound 7]
ELISA Assay Ratio b1/b7 [2]: 1.6
IC50 [2]: 117 nM
IC50 [1]: 190 nM

C=CCOc1ccc(C[C@@H]2NC(=O)[C@@H]3CCCN3[C@H](C(=O)NC(C)(C)C)[C@H](C)NC(=O)[C@H]([C@@H](C)O)NC(=O)[C@H](CC(=O)O)NC(=O)[C@H](CC(C)C)NC(=O)[C@@H](C(C)C)NC2=O)cc1 [Compound 166]
ELISA Assay Ratio b1/b7 [2]: 7.7
IC50 [2]: 179 nM
IC50 [1]: 1380 nM

CC(C)C[C@@H]1NC(=O)[C@H]2CCCCN2C(=O)[C@H](Cc2ccc(O)cc2)N(C)C(=O)[C@@H]2CCCN2[C@H](C(=O)NC(C)(C)C)[C@H](C)NC(=O)[C@H]([C@@H](C)O)NC(=O)[C@H](CC(=O)O)NC1=O [Compound 148]
IC50 [1]: 105 nM

CCO[C@H](C)[C@@H]1NC(=O)[C@H](CC(=O)O)NC(=O)[C@H](CC(C)C)NC(=O)[C@H](Cc2ccccc2)NC(=O)[C@@H]2CCCN2[C@H](C(=O)NC(C)(C)C)[C@H](C)NC1=O [Compound 41]
IC50 [1]: 106 nM

CC(C)C[C@@H]1NC(=O)C[C@H](CCCCN)NC(=O)[C@@H](CCCNC(=N)N)NC(=O)[C@@H]2CCCN2[C@H](C(=O)NC(C)(C)C)[C@H](C)NC(=O)[C@H]([C@@H](C)O)NC(=O)[C@H](CC(=O)O)NC1=O [Compound 217]
IC50 [1]: 1090 nM

CC(C)C[C@@H]1NC(=O)[C@@H]2CCN2C(=O)C[C@H](CCCCN)NC(=O)[C@@H]2CCCN2[C@H](C(=O)NC(C)(C)C)[C@H](C)NC(=O)[C@H]([C@@H](C)O)NC(=O)[C@H](CC(=O)O)NC1=O [Compound 319]
IC50 [1]: 309 nM

CC(C)C[C@@H]1NC(=O)[C@H]2CCCN2C(=O)[C@H](Cc2cc(F)c(F)c(F)c2)NC(=O)[C@@H]2CCCN2[C@H](C(=O)NC(C)(C)C)[C@H](C)NC(=O)[C@H]([C@@H](C)O)NC(=O)[C@H](CC(=O)O)NC1=O [Compound 128]
ELISA Assay Ratio b1/b7 [2]: 11.4
IC50 [2]: 26 nM

CC(C)C[C@@H]1NC(=O)C[C@H](CCCCN)NC(=O)[C@H](Cc2ccccc2-c2ncccc2Br)NC(=O)[C@@H]2CCCN2[C@H](C(=O)NC(C)(C)C)[C@H](C)NC(=O)[C@H]([C@@H](C)O)NC(=O)[C@H](CC(=O)O)NC1=O [Compound 294]
IC50 [2]: 45 nM

COc1ccccc1-c1cccc(C[C@@H]2NC(=O)[C@@H]3CCCN3[C@H](C(=O)NC(C)(C)C)[C@H](C)NC(=O)[C@H]([C@@H](C)O)NC(=O)[C@H](CC(=O)O)NC(=O)[C@H](CC(C)C)NC(=O)C[C@H](CCCCN)NC2=O)c1 [Compound 257]
IC50 [2]: 58 nM

CC(C)C[C@@H]1NC(=O)[C@H]2c3ccccc3CCN2C(=O)[C@@H]2CCCN2[C@H](C(=O)NC(C)(C)C)[C@H](C)NC(=O)[C@H]([C@@H](C)O)NC(=O)[C@H](CC(=O)O)NC1=O [Compound 98]
IC50 [1]: 58 nM

C[C@@H]1NC(=O)[C@H]([C@@H](C)O)NC(=O)[C@H](CC(=O)O)NC(=O)[C@H](CC(C)(C)C)NC(=O)c2ccc(-c3ccnc4ccccc34)c(c2)CNC(=O)[C@@H]2CCCN2[C@@H]1C(=O)NC(C)(C)C [Compound 355]
IC50 [2]: 48 nM

CC(C)C[C@@H]1NC(=O)c2ccc(N(C)C)c(c2)CNC(=O)[C@@H]2CCCN2[C@H](C(=O)NC(C)(C)C)[C@H](C)NC(=O)[C@H]([C@@H](C)O)NC(=O)[C@H](CC(=O)O)NC1=O [Compound 380]
IC50 [2]: 41 nM

CC(C)C[C@@H]1NC(=O)[C@@H](Cc2ccncc2)NC(=O)[C@@H]2CCCN2[C@H](C(=O)NC(C)(C)C)[C@H](C)NC(=O)[C@H]([C@@H](C)O)NC(=O)[C@H](CC(=O)O)NC1=O [Compound 62]
ELISA Assay Ratio b1/b7 [2]: 4.3
IC50 [2]: 27 nM

CC(C)C[C@@H]1NC(=O)C[C@H](CCCCN)NC(=O)[C@H](Cc2ccc3ccccc3c2)NC(=O)[C@@H]2CCCN2[C@H](C(=O)NC(C)(C)C)[C@H](C)NC(=O)[C@H]([C@@H](C)O)NC(=O)[C@H](CC(=O)O)NC1=O [Compound 203]
IC50 [2]: 55 nM

CC(C)C[C@@H]1NC(=O)C[C@H](CCCCN)NC(=O)[C@H](Cc2ccccc2-c2cc(C(F)(F)F)ccc2C(F)(F)F)NC(=O)[C@@H]2CCCN2[C@H](C(=O)NC(C)(C)C)[C@H](C)NC(=O)[C@H]([C@@H](C)O)NC(=O)[C@H](CC(=O)O)NC1=O [Compound 286]
IC50 [2]: 64 nM
